In brackets after ≈: the same amount, converted by molar mass.
Assays:
PC-6 = test: Concentration required to inhibit the growth of human lung cancer (PC-6)cell lines by 50% on 72 hr continuous exposure; format: functional; settings: PC-6, 72 h
P388 = test: Concentration required to inhibit the growth of mouse leukemia (P388) cell lines by 50% on 72 h continuous exposure; format: functional; settings: P388, 72 h

| Structure (SMILES) | GI50 (P388) [ng/mL] | GI50 (PC-6) [ng/mL] |
| --- | --- | --- |
| CC(=O)O[C@@]12COC1C[C@H](O)[C@@]1(C)C(=O)[C@H](CCC#N)C3=C(C)[C@@H](OC(=O)[C@H](O)[C@@H](NC(=O)OC(C)(C)C)c4ccccc4)C[C@@](O)([C@@H](OC(=O)c4ccccc4)[C@@H]12)C3(C)C (stereo partly drawn) | 18.4 (≈ 0.0218 µM) | 0.681 (≈ 0.000806 µM) |
| CC(=O)O[C@@]12CO[C@@H]1C[C@H](O)[C@@]1(C)C(=O)[C@H](O)C3=C(C)[C@@H](OC(=O)[C@H](O)[C@@H](NC(=O)OC(C)(C)C)c4ccccc4)C[C@@](O)([C@@H](OC(=O)c4ccccc4)[C@H]21)C3(C)C.O.O.O [DOCETAXEL] | 6.74 | 1.13 |
| COC(=O)CC[C@H]1C(=O)[C@]2(C)[C@@H](O)CC3OC[C@@]3(OC(C)=O)[C@H]2[C@H](OC(=O)c2ccccc2)[C@]2(O)C[C@H](OC(=O)[C@H](O)[C@@H](NC(=O)OC(C)(C)C)c3ccccc3)C(C)=C1C2(C)C (stereo partly drawn) | 3.3 (≈ 0.00376 µM) | 0.771 (≈ 0.000878 µM) |
| CCOC(=O)CC[C@H]1C(=O)[C@]2(C)[C@@H](O)CC3OC[C@@]3(OC(C)=O)[C@H]2[C@H](OC(=O)c2ccccc2)[C@]2(O)C[C@H](OC(=O)[C@H](O)[C@@H](NC(=O)OC(C)(C)C)c3ccccc3)C(C)=C1C2(C)C (stereo partly drawn) | 4.31 (≈ 0.00483 µM) | 1.35 (≈ 0.00151 µM) |

Further compounds by falling GI50 (P388), results first:

| GI50 (P388) [ng/mL] | Structure (SMILES) | GI50 (PC-6) [ng/mL] |
| --- | --- | --- |
| 1870 (≈ 2.16 µM) | CC(=O)O[C@@]12COC1C[C@H](O)[C@@]1(C)C(=O)[C@H](CCC(=O)O)C3=C(C)[C@@H](OC(=O)[C@H](O)[C@@H](NC(=O)OC(C)(C)C)c4ccccc4)C[C@@](O)([C@@H](OC(=O)c4ccccc4)[C@@H]12)C3(C)C (stereo partly drawn) | 934 (≈ 1.08 µM) |
| 1520 (≈ 1.79 µM) | CC(=O)O[C@@]12COC1C[C@H](O)[C@@]1(C)C(=O)[C@H](CCCN)C3=C(C)[C@@H](OC(=O)[C@H](O)[C@@H](NC(=O)OC(C)(C)C)c4ccccc4)C[C@@](O)([C@@H](OC(=O)c4ccccc4)[C@@H]12)C3(C)C (stereo partly drawn) | 236 (≈ 0.278 µM) |
| 71.8 (≈ 0.0806 µM) | CC(=O)NCCC[C@H]1C(=O)[C@]2(C)[C@@H](O)CC3OC[C@@]3(OC(C)=O)[C@H]2[C@H](OC(=O)c2ccccc2)[C@]2(O)C[C@H](OC(=O)[C@H](O)[C@@H](NC(=O)OC(C)(C)C)c3ccccc3)C(C)=C1C2(C)C (stereo partly drawn) | 10.5 (≈ 0.0118 µM) |
| 15.5 (≈ 0.0182 µM) | CC(=O)O[C@@]12COC1C[C@H](O)[C@@]1(C)C(=O)[C@H](CCCO)C3=C(C)[C@@H](OC(=O)[C@H](O)[C@@H](NC(=O)OC(C)(C)C)c4ccccc4)C[C@@](O)([C@@H](OC(=O)c4ccccc4)[C@@H]12)C3(C)C (stereo partly drawn) | 0.777 (≈ 0.000914 µM) |
| 7.12 (≈ 0.00826 µM) | CC(=O)CC[C@H]1C(=O)[C@]2(C)[C@@H](O)CC3OC[C@@]3(OC(C)=O)[C@H]2[C@H](OC(=O)c2ccccc2)[C@]2(O)C[C@H](OC(=O)[C@H](O)[C@@H](NC(=O)OC(C)(C)C)c3ccccc3)C(C)=C1C2(C)C (stereo partly drawn) | 0.266 (≈ 0.000309 µM) |

From ChEMBL document CHEMBL1130756, “Synthesis and cytotoxic activity of novel 10-alkylated docetaxel analogs” (1998)
